Experimental data from patent US20260363244A1, “HERBICIDAL COMPOSITIONS COMPRISING URACILS” (BASF SE, priority 2022, published 2026).
Like-named read-outs stand apart in the source and are kept apart here.

How the values were obtained:
Type in all cases: in vivo
Brachiaria decumbens = assay: greenhouse post-emergence herbicidal activity, BRADC; details: Urochloa decumbens, post-emergence, 1.6 gai/ha, read-out: % activity (solo application)
Protocol: (§1) The following examples serve to illustrate the invention.
(§2) The culture containers used were plastic pots containing loamy sand with approximately 3.0% of humus as substrate. The seeds of the test plants were sown separately for each species.
(§3) For the post-emergence treatment, the test plants were grown to a plant height of from 3 to 15 cm, depending on the plant habit, and only then treated with the active compounds which had been suspended or emulsified in water. To this end, the test plants were either sown directly, and grown in the same containers, or they were first grown separately as seedlings and transplanted into the test containers a few days prior to treatment.
(§4) Depending on the species, the plants were kept at 10-25 °C and 20-35 °C, respectively. The test period extended over 2 to 4 weeks. During this time, the plants were tended and their response to the individual treatments was evaluated.
(§5) Evaluation was carried out using a scale from 0 to 100. 100 means no emergence of the plants, or complete destruction of at least the above-ground parts, and 0 means no damage or normal course of growth. A good herbicidal activity is given at values of at least 70, and very good herbicidal activity is given at values of at least 85.
(§6) The respective stated components A and B, and if appropriate, C were formulated as a 5% by weight strength emulsion concentrate and, with addition of the amount of solvent system, introduced into the spray liquor used for applying the active compound. In the examples, the solvent used was water.
(§7) In the examples below, using the method of S. R. Colby (1967) “Calculating synergistic and antagonistic responses of herbicide combinations”, Weeds 15, p. 22ff., the value E, which is expected if the activity of the individual active compounds is only additive, was calculated.
(§8) E=X+Y−(X·Y/100) • where • X=percent activity using active compound A at an application rate a; • Y=percent activity using active compound B at an application rate b; • E=expected activity (in %) by A+B at application rates a+b.
(§9) The plants used in the greenhouse experiments were of the following species
(§10) In this context, a.i. means active ingredient, based on 100% active ingredient.
(§11) As indicated the application was post emergent (POST) at the respective growth stage (GS) of the weed.
(§12) Assessment was at the indicated days after treatment (DAT).

Abutilon theophrasti = assay: greenhouse post-emergence herbicidal activity, ABUTH; details: read-out: % activity (solo application); for activity at 0.5 g/ha: 0.5 gai/ha; for activity at 0.4 g/ha: 0.4 gai/ha; for activity at 0.8 g/ha: 0.8 gai/ha
Protocol: as §1, §2, §3, §4, §5, §6, §7, §8, §9, §10, §11, §12

Eleusine indica = assay: greenhouse post-emergence herbicidal activity, ELEIN; details: read-out: % activity (solo application); for activity at […]: 1.6 gai/ha
Protocol: as §1, §2, §3, §4, §5, §6, §7, §8, §9, §10, §11, §12

Sorghum halepense = assay: greenhouse post-emergence herbicidal activity, SORHA; details: Sorghum halepense, post-emergence, 480 h, GS 11-33, 20 DAT, read-out: % activity (solo application)
Protocol: as §1, §2, §3, §4, §5, §6, §7, §8, §9, §10, §11, §12

Kochia scoparia = assay: greenhouse post-emergence herbicidal activity, KCHSC; details: Bassia scoparia, post-emergence, read-out: % activity (solo application); for activity at 0.4 g/ha: 0.4 gai/ha; for activity at 0.8 g/ha: 0.8 gai/ha
Protocol: as §1, §2, §3, §4, §5, §6, §7, §8, §9, §10, §11, §12

Commenline benghalensis = assay: greenhouse post-emergence herbicidal activity, COMBE; details: read-out: % activity (solo application)
Protocol: as §1, §2, §3, §4, §5, §6, §7, §8, §9, §10, §11, §12

Digitaria sanguinales = assay: greenhouse post-emergence herbicidal activity, DIGSA; details: Digitaria, post-emergence, read-out: % activity (solo application)
Protocol: as §1, §2, §3, §4, §5, §6, §7, §8, §9, §10, §11, §12

Avena fatua = assay: greenhouse post-emergence herbicidal activity, AVEFA; details: read-out: % activity (solo application)
Protocol: as §1, §2, §3, §4, §5, §6, §7, §8, §9, §10, §11, §12

[1] = 168 h, GS 11-33, 7 DAT, 0.2 gai/ha
[2] = 168 h, GS 11-33, 7 DAT, 1.6 gai/ha
[3] = 168 h, GS 12-16, 7 DAT, 0.25 gai/ha
[4] = 480 h, GS 11-33, 20 DAT, 1.6 gai/ha
[5] = 480 h, GS 11-33, 20 DAT, 0.2 gai/ha
[6] = 480 h, GS 12-16, 20 DAT, 0.5 gai/ha
[7] = 480 h, GS 12-16, 20 DAT, 0.25 gai/ha
[8] = 144 h, GS 12-16, 6 DAT, 0.25 gai/ha

Question: What does the source list for `CCOC(=O)COc1ccccc1Oc1nc(-n2c(=O)cc(C(F)(F)F)n(C)c2=O)c(F)cc1Cl` [(I.3)]?
Answer: activity at […] (Brachiaria decumbens; 192 h, GS 11-33, 8 DAT): 50%; activity at […] (Brachiaria decumbens; 480 h, GS 11-33, 20 DAT): 40%; activity at 0.5 g/ha (Abutilon theophrasti; 144 h, GS 12-16, 6 DAT): 95%; activity at 0.2 g/ha (Abutilon theophrasti; [1]): 80%; activity at 0.4 g/ha (Abutilon theophrasti; 168 h, GS 11-33, 7 DAT): 85%; activity at 0.8 g/ha (Abutilon theophrasti; 168 h, GS 11-33, 7 DAT): 85%; activity at […] (Abutilon theophrasti; [2]): 90%; activity at […] (Abutilon theophrasti; [3]): 85%; activity at 0.5 g/ha (Abutilon theophrasti; 168 h, GS 12-16, 7 DAT): 90%; activity at 0.4 g/ha (Abutilon theophrasti; 480 h, GS 11-33, 20 DAT): 80%; activity at 0.8 g/ha (Abutilon theophrasti; 480 h, GS 11-33, 20 DAT): 80%; activity at […] (Abutilon theophrasti; [4]): 90%; activity at […] (Abutilon theophrasti; 504 h, GS 12-16, 21 DAT, 0.25 gai/ha): 85%; activity at […] (Eleusine indica; 168 h, GS 11-33, 7 DAT): 95%; activity at 0.2 g/ha (Eleusine indica; [5]): 20%; activity at […] (Eleusine indica; 480 h, GS 11-33, 20 DAT): 90%; activity at 0.5 g/ha (Eleusine indica; [6]): 35%; activity at 0.2 g/ha (Sorghum halepense; 0.2 gai/ha): 10%; activity at 0.4 g/ha (Sorghum halepense; 0.4 gai/ha): 20%; activity at 0.8 g/ha (Sorghum halepense; 0.8 gai/ha): 30%; activity at […] (Sorghum halepense; 1.6 gai/ha): 30%; activity at 0.4 g/ha (Kochia scoparia; 168 h, GS 11-33, 7 DAT): 60%; activity at 0.8 g/ha (Kochia scoparia; 168 h, GS 11-33, 7 DAT): 75%; activity at 0.2 g/ha (Kochia scoparia; [5]): 15%; activity at 0.4 g/ha (Kochia scoparia; 480 h, GS 11-33, 20 DAT): 30%; activity at 0.8 g/ha (Kochia scoparia; 480 h, GS 11-33, 20 DAT): 55%; activity at […] (Kochia scoparia; [4]): 75%; activity at […] (Kochia scoparia; [7]): 40%; activity at […] (Commenline benghalensis; [8]): 40%; activity at 0.5 g/ha (Commenline benghalensis; 144 h, GS 12-16, 6 DAT, 0.5 gai/ha): 90%; activity at 0.2 g/ha (Commenline benghalensis; [1]): 20%; activity at […] (Commenline benghalensis; [4]): 95%; activity at […] (Commenline benghalensis; [7]): 60%; activity at 0.4 g/ha (Digitaria sanguinales; 192 h, GS 11-33, 8 DAT, 0.4 gai/ha): 30%; activity at 0.2 g/ha (Digitaria sanguinales; [5]): 10%; activity at 0.5 g/ha (Digitaria sanguinales; [6]): 35%; activity at […] (Avena fatua; [8]): 35%; activity at 0.8 g/ha (Avena fatua; 168 h, GS 11-33, 7 DAT, 0.8 gai/ha): 25%; activity at […] (Avena fatua; [2]): 40%; activity at […] (Avena fatua; [3]): 35%
